Test: xn = mol fraction of the nth substance listed
Conditions: 100 kPa, Liquid; for viscosity: Concentric cylinders viscometry; for mass density: Vibrating tube method

O=Cc1ccccc1 [benzaldehyde] + CC(C)O
Conditions | mass density [kg/m3] | viscosity [mPa·s]
293.15 K, x1 = 0.0809 | 809.6 | 2.11
293.15 K, x1 = 0.1596 | 830.7 | 1.86
293.15 K, x1 = 0.24 | 852.5 | 1.675
293.15 K, x1 = 0.3492 | 882.3 | 1.499
293.15 K, x1 = 0.4399 | 906.4 | 1.42
293.15 K, x1 = 0.5693 | 940.8 | 1.402
293.15 K, x1 = 0.6495 | 962.2 | 1.414
293.15 K, x1 = 0.7399 | 986.2 | 1.434
293.15 K, x1 = 0.8498 | 1012.8 | 1.47
293.15 K, x1 = 0.9399 | 1033.3 | 1.502
293.15 K, x1 = 1 | 1046.3 | 1.52
298.15 K, x1 = 0.0809 | 804.3 | 1.82
298.15 K, x1 = 0.1596 | 826.4 | 1.63
298.15 K, x1 = 0.24 | 848.2 | 1.47
298.15 K, x1 = 0.3492 | 877.9 | 1.342
298.15 K, x1 = 0.4399 | 901.9 | 1.296
298.15 K, x1 = 0.5693 | 936.2 | 1.284
298.15 K, x1 = 0.6495 | 957.6 | 1.298
298.15 K, x1 = 0.7399 | 981.7 | 1.318
298.15 K, x1 = 0.8498 | 1008 | 1.354
298.15 K, x1 = 0.9399 | 1029 | 1.385
298.15 K, x1 = 1 | 1041.7 | 1.41
303.15 K, x1 = 0.0809 | 799.9 | 1.59
303.15 K, x1 = 0.1596 | 821.8 | 1.43
303.15 K, x1 = 0.24 | 843.7 | 1.33
303.15 K, x1 = 0.3492 | 873.4 | 1.233
303.15 K, x1 = 0.4399 | 897.4 | 1.197
303.15 K, x1 = 0.5693 | 931.7 | 1.187
303.15 K, x1 = 0.6495 | 953.1 | 1.196
303.15 K, x1 = 0.7399 | 976.7 | 1.216
303.15 K, x1 = 0.8498 | 1004.1 | 1.252
303.15 K, x1 = 0.9399 | 1024.1 | 1.286
303.15 K, x1 = 1 | 1037.1 | 1.31
308.15 K, x1 = 0.0809 | 795.6 | 1.41
308.15 K, x1 = 0.1596 | 817.6 | 1.29
308.15 K, x1 = 0.24 | 839.2 | 1.2
308.15 K, x1 = 0.3492 | 868.8 | 1.126
308.15 K, x1 = 0.4399 | 892.9 | 1.1
308.15 K, x1 = 0.5693 | 927.2 | 1.098
308.15 K, x1 = 0.6495 | 948.6 | 1.109
308.15 K, x1 = 0.7399 | 972.6 | 1.131
308.15 K, x1 = 0.8498 | 999.3 | 1.163
308.15 K, x1 = 0.9399 | 1019.7 | 1.197
308.15 K, x1 = 1 | 1032.4 | 1.22
313.15 K, x1 = 0.0809 | 791 | 1.23
313.15 K, x1 = 0.1596 | 813 | 1.14
313.15 K, x1 = 0.24 | 834.8 | 1.08
313.15 K, x1 = 0.3492 | 864.4 | 1.03
313.15 K, x1 = 0.4399 | 888.3 | 1.011
313.15 K, x1 = 0.5693 | 922.6 | 1.018
313.15 K, x1 = 0.6495 | 944 | 1.032
313.15 K, x1 = 0.7399 | 967 | 1.051
313.15 K, x1 = 0.8498 | 994.1 | 1.093
313.15 K, x1 = 0.9399 | 1014.6 | 1.124
313.15 K, x1 = 1 | 1027.9 | 1.15
318.15 K, x1 = 0.0809 | 786.7 | 1.08
318.15 K, x1 = 0.1596 | 808.6 | 1
318.15 K, x1 = 0.24 | 830.3 | 0.95
318.15 K, x1 = 0.3492 | 859.8 | 0.918
318.15 K, x1 = 0.4399 | 883.7 | 0.909
318.15 K, x1 = 0.5693 | 918 | 0.916
318.15 K, x1 = 0.6495 | 939.4 | 0.933
318.15 K, x1 = 0.7399 | 963.2 | 0.967
318.15 K, x1 = 0.8498 | 989.7 | 1.015
318.15 K, x1 = 0.9399 | 1010.8 | 1.058
318.15 K, x1 = 1 | 1023.4 | 1.09
323.15 K, x1 = 0.0809 | 782 | 0.97
323.15 K, x1 = 0.1596 | 803.7 | 0.913
323.15 K, x1 = 0.24 | 825.6 | 0.873
323.15 K, x1 = 0.3492 | 855.1 | 0.848
323.15 K, x1 = 0.4399 | 879.1 | 0.84
323.15 K, x1 = 0.5693 | 913.4 | 0.844
323.15 K, x1 = 0.6495 | 934.9 | 0.863
323.15 K, x1 = 0.7399 | 958.9 | 0.892
323.15 K, x1 = 0.8498 | 985 | 0.943
323.15 K, x1 = 0.9399 | 1006 | 0.991
323.15 K, x1 = 1 | 1019.1 | 1.03

O=Cc1ccccc1 [benzaldehyde] + CCCC(C)O
Conditions | mass density [kg/m3] | viscosity [mPa·s]
293.15 K, x1 = 0.0809 | 825.2 | 3.3
293.15 K, x1 = 0.1662 | 841.4 | 2.75
293.15 K, x1 = 0.2441 | 858.3 | 2.36
293.15 K, x1 = 0.3552 | 882.5 | 1.95
293.15 K, x1 = 0.4418 | 903 | 1.757
293.15 K, x1 = 0.5664 | 933.2 | 1.62
293.15 K, x1 = 0.6565 | 956.4 | 1.568
293.15 K, x1 = 0.7447 | 980 | 1.537
293.15 K, x1 = 0.8528 | 1008.5 | 1.516
293.15 K, x1 = 0.9419 | 1031.8 | 1.51
293.15 K, x1 = 1 | 1046.3 | 1.52
298.15 K, x1 = 0.0809 | 821.1 | 2.775
298.15 K, x1 = 0.1662 | 837.2 | 2.35
298.15 K, x1 = 0.2441 | 854 | 2.05
298.15 K, x1 = 0.3552 | 878.2 | 1.731
298.15 K, x1 = 0.4418 | 898 | 1.584
298.15 K, x1 = 0.5664 | 928.2 | 1.458
298.15 K, x1 = 0.6565 | 951.2 | 1.416
298.15 K, x1 = 0.7447 | 975.4 | 1.395
298.15 K, x1 = 0.8528 | 1004.1 | 1.39
298.15 K, x1 = 0.9419 | 1027.4 | 1.395
298.15 K, x1 = 1 | 1041.7 | 1.41
303.15 K, x1 = 0.0809 | 817 | 2.4
303.15 K, x1 = 0.1662 | 833 | 2.06
303.15 K, x1 = 0.2441 | 849.7 | 1.809
303.15 K, x1 = 0.3552 | 873.9 | 1.55
303.15 K, x1 = 0.4418 | 894.4 | 1.411
303.15 K, x1 = 0.5664 | 923.8 | 1.301
303.15 K, x1 = 0.6565 | 946.9 | 1.259
303.15 K, x1 = 0.7447 | 971 | 1.25
303.15 K, x1 = 0.8528 | 1000 | 1.259
303.15 K, x1 = 0.9419 | 1023.1 | 1.28
303.15 K, x1 = 1 | 1037.1 | 1.31
308.15 K, x1 = 0.0809 | 812.9 | 2.035
308.15 K, x1 = 0.1662 | 828.8 | 1.78
308.15 K, x1 = 0.2441 | 845.5 | 1.584
308.15 K, x1 = 0.3552 | 869.6 | 1.369
308.15 K, x1 = 0.4418 | 890.3 | 1.25
308.15 K, x1 = 0.5664 | 919.3 | 1.159
308.15 K, x1 = 0.6565 | 942.3 | 1.128
308.15 K, x1 = 0.7447 | 966.5 | 1.117
308.15 K, x1 = 0.8528 | 995.5 | 1.138
308.15 K, x1 = 0.9419 | 1018 | 1.175
308.15 K, x1 = 1 | 1032.4 | 1.22
313.15 K, x1 = 0.0809 | 808.6 | 1.746
313.15 K, x1 = 0.1662 | 824.4 | 1.537
313.15 K, x1 = 0.2441 | 841.1 | 1.37
313.15 K, x1 = 0.3552 | 865.2 | 1.185
313.15 K, x1 = 0.4418 | 885.2 | 1.088
313.15 K, x1 = 0.5664 | 914.8 | 1.021
313.15 K, x1 = 0.6565 | 937.8 | 0.999
313.15 K, x1 = 0.7447 | 962 | 0.999
313.15 K, x1 = 0.8528 | 991.1 | 1.035
313.15 K, x1 = 0.9419 | 1013.9 | 1.088
313.15 K, x1 = 1 | 1027.9 | 1.15
318.15 K, x1 = 0.0809 | 804.2 | 1.46
318.15 K, x1 = 0.1662 | 820 | 1.291
318.15 K, x1 = 0.2441 | 836.7 | 1.167
318.15 K, x1 = 0.3552 | 860.8 | 1.032
318.15 K, x1 = 0.4418 | 881.4 | 0.963
318.15 K, x1 = 0.5664 | 910.4 | 0.9
318.15 K, x1 = 0.6565 | 933.4 | 0.881
318.15 K, x1 = 0.7447 | 957.4 | 0.884
318.15 K, x1 = 0.8528 | 986.6 | 0.932
318.15 K, x1 = 0.9419 | 1009.1 | 1.011
318.15 K, x1 = 1 | 1023.4 | 1.09
323.15 K, x1 = 0.0809 | 799.7 | 1.206
323.15 K, x1 = 0.1662 | 815.6 | 1.068
323.15 K, x1 = 0.2441 | 832.2 | 0.984
323.15 K, x1 = 0.3552 | 856.3 | 0.887
323.15 K, x1 = 0.4418 | 876.9 | 0.831
323.15 K, x1 = 0.5664 | 906.7 | 0.789
323.15 K, x1 = 0.6565 | 928.9 | 0.782
323.15 K, x1 = 0.7447 | 952.9 | 0.799
323.15 K, x1 = 0.8528 | 981.6 | 0.85
323.15 K, x1 = 0.9419 | 1004.5 | 0.941
323.15 K, x1 = 1 | 1019.1 | 1.03
